Reference: ChEMBL document CHEMBL5465560, “Selectivity Literature for EUbOPEN Chemogenomic Library” (2024)
Blank lines part the entries; values can stand above or below the compound they belong to.

Assays:
[1] = target: Ribosomal protein S6 kinase alpha-5 (Homo sapiens) (UniProt O75582); assay: Selectivity interaction (KinomeScan (DiscoverX)) EUB0001868a RPS6KA5; conditions: at 1 µM
[2] = target: T1, MAP kinase-activated protein kinase 5 (Homo sapiens) (UniProt Q8IW41); assay: Selectivity interaction (Kinase panel (literature)) EUB0001199aCl MAPKAPK5; conditions: at 1 µM
T1 sequence (whole entry): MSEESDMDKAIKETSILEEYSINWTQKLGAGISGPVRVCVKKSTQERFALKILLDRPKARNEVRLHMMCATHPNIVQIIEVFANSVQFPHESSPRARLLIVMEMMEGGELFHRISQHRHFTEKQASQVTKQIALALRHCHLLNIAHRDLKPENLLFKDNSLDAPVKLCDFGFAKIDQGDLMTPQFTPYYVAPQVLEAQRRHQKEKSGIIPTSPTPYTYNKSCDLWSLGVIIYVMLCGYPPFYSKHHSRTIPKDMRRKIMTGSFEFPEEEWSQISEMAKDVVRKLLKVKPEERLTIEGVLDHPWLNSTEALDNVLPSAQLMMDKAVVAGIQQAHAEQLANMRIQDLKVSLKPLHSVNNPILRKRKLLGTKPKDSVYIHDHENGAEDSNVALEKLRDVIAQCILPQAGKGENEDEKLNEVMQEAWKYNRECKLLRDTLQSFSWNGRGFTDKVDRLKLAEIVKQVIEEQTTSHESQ

[3] = target: T2, Cyclin-dependent kinase-like 2 (Homo sapiens) (UniProt Q92772); assay: Selectivity interaction (KinomeScan (DiscoverX)) EUB0000655a CDKL2; conditions: at 10 µM
T2 sequence (whole entry): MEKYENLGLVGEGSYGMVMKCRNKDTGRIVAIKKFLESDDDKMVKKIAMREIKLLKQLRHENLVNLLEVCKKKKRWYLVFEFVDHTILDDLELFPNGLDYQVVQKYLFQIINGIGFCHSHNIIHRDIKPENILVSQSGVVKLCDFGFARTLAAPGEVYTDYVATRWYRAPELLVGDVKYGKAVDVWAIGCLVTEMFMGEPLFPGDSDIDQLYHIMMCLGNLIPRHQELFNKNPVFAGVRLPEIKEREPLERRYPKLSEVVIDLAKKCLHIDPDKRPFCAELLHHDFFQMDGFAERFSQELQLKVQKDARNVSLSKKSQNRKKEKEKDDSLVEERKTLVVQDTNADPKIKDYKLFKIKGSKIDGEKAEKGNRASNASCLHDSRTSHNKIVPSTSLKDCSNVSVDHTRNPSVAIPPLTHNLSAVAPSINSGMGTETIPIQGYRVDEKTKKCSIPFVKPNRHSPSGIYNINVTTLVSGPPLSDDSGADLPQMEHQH

[4] = target: T3, Serine/threonine-protein kinase Chk1 (Homo sapiens) (UniProt O14757); assay: Selectivity interaction (KinomeScan (DiscoverX)) EUB0000655a CHEK1; conditions: at 10 µM
T3 sequence (whole entry): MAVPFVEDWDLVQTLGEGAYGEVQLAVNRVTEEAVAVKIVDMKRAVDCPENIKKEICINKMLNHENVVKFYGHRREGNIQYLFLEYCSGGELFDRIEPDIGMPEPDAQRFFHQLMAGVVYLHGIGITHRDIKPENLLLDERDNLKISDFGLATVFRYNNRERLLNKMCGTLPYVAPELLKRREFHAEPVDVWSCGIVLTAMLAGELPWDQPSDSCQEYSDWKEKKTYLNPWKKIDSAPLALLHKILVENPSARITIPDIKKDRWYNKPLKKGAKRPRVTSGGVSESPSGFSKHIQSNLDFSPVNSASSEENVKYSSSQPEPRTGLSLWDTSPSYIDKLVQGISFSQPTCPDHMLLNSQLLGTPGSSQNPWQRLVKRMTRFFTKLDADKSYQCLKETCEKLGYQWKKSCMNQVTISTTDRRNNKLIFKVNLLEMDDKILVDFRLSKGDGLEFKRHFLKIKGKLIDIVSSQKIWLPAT

[5] = target: Epithelial discoidin domain-containing receptor 1 (Homo sapiens) (UniProt Q08345); assay: Selectivity interaction (KinomeScan (DiscoverX)) EUB0000618a DDR1; conditions: at 10 µM
[6] = target: T4, Ephrin type-B receptor 1 (Homo sapiens) (UniProt P54762); assay: Selectivity interaction (KinomeScan (DiscoverX)) EUB0000666a EPHB1; conditions: at 10 µM
T4 sequence (whole entry): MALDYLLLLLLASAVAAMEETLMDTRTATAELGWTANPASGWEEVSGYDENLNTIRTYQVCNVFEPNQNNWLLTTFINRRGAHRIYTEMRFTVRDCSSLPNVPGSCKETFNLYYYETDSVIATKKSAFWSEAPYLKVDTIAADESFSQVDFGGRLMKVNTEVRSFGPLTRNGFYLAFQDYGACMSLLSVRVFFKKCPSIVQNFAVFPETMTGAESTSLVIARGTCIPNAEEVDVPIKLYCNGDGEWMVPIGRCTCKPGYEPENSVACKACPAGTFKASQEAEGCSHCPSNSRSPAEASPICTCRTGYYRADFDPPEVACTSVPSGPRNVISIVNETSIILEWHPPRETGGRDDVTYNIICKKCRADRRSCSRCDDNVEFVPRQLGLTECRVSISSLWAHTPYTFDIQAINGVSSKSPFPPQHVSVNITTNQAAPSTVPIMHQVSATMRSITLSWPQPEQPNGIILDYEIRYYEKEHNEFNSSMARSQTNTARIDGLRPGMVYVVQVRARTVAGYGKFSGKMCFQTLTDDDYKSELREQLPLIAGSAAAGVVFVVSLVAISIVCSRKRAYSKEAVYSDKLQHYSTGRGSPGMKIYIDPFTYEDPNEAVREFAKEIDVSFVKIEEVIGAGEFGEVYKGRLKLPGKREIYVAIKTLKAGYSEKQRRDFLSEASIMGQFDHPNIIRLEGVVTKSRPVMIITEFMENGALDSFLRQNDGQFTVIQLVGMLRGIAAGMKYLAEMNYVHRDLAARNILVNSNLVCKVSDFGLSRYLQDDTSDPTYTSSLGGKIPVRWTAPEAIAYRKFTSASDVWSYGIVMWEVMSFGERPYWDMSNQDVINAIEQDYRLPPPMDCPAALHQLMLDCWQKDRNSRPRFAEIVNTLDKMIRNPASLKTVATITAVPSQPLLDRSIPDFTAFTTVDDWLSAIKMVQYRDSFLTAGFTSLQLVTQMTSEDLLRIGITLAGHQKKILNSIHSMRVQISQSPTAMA

Sequence of Epithelial discoidin domain-containing receptor 1 (Homo sapiens) (Q08345 whole entry, the tested form may be a part): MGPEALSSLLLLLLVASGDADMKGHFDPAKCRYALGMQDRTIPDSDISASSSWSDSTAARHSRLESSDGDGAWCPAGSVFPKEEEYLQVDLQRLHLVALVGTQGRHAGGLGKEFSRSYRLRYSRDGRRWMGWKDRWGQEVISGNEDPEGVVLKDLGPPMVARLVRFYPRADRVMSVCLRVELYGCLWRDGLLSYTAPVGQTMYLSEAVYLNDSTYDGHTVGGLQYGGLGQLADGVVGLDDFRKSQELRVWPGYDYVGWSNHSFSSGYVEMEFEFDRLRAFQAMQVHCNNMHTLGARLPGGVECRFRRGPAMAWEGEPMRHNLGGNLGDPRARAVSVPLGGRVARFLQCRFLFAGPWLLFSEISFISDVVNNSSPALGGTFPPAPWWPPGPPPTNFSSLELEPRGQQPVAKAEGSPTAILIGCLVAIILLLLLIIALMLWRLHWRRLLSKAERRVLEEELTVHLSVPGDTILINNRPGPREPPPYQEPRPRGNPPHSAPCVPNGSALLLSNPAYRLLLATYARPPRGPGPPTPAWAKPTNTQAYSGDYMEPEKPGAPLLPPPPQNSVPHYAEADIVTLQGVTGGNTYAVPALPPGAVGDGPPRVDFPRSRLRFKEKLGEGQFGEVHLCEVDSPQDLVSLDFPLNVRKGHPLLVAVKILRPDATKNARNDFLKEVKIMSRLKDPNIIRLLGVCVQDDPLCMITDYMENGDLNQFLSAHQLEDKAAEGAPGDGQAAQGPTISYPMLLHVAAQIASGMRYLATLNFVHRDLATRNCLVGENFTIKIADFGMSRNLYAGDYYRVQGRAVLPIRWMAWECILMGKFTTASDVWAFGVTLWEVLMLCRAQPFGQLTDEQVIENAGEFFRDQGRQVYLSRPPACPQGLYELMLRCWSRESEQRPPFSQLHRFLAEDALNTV
Sequence of Ribosomal protein S6 kinase alpha-5 (Homo sapiens) (O75582 whole entry, looked up): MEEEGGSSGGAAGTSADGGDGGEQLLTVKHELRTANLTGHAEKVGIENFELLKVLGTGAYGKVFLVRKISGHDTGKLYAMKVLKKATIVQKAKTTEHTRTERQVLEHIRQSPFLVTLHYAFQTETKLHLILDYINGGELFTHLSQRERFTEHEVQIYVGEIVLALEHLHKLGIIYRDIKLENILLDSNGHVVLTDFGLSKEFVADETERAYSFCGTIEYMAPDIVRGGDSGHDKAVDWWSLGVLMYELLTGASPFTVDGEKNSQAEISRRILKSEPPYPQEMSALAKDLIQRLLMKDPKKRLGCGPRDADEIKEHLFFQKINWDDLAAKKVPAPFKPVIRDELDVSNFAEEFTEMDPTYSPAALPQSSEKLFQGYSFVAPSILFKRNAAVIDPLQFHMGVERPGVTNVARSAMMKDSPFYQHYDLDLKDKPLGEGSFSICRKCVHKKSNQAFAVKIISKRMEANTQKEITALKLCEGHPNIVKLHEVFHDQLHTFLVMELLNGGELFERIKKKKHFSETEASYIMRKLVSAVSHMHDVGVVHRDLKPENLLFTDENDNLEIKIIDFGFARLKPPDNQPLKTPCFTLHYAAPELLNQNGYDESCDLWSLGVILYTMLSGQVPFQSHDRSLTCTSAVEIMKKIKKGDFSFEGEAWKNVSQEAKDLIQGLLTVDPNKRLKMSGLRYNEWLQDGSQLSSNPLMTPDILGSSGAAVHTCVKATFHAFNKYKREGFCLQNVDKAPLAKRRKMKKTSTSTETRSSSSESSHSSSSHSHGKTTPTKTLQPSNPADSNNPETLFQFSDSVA

% of control [1]: 42%
Compound: Cc1cc(-c2ccnc(Nc3cnn(C)c3)n2)ccc1CNC(=O)N1CC(OC(C)C)C1

% of inhibition [2]: -1%
Compound: CN1Cc2nccc(-c3cn(C)nc3-c3ccc(F)cc3)c2C1=O

Compound: CN(C)CCOc1ccc(-c2nc(-c3ccncc3)c(-c3ccc4c(c3)CC/C4=N\O)[nH]2)cc1
% of control [3]: 100%
% of control [4]: 80%

Compound: O[C@H]1CC[C@H](Nc2ncc3nc(Nc4c(F)cc(F)cc4F)n([C@H]4CCOC4)c3n2)CC1
% of control [5]: 27%

Compound: O=C(NOC[C@H](O)CO)c1ccc(F)c(F)c1Nc1ccc(I)cc1F
% of control [6]: 100%
